Consider 21 compounds from patent US20240376076A1, “INHIBITORS TARGETING UBIQUITIN SPECIFIC PROTEASE 7 (USP7)” (Dana-Farber Cancer Institute, Inc., priority 2021, published 2024).

Counter-ions that a name gives are not always drawn. Some results are limits rather than exact numbers.

The target of this assay is T1, USP7, Active human recombinant protein (Homo sapiens, UniProt Q93009).
T1 construct: purchased CP Lot; 20200225001
T1 sequence (Q93009 whole entry): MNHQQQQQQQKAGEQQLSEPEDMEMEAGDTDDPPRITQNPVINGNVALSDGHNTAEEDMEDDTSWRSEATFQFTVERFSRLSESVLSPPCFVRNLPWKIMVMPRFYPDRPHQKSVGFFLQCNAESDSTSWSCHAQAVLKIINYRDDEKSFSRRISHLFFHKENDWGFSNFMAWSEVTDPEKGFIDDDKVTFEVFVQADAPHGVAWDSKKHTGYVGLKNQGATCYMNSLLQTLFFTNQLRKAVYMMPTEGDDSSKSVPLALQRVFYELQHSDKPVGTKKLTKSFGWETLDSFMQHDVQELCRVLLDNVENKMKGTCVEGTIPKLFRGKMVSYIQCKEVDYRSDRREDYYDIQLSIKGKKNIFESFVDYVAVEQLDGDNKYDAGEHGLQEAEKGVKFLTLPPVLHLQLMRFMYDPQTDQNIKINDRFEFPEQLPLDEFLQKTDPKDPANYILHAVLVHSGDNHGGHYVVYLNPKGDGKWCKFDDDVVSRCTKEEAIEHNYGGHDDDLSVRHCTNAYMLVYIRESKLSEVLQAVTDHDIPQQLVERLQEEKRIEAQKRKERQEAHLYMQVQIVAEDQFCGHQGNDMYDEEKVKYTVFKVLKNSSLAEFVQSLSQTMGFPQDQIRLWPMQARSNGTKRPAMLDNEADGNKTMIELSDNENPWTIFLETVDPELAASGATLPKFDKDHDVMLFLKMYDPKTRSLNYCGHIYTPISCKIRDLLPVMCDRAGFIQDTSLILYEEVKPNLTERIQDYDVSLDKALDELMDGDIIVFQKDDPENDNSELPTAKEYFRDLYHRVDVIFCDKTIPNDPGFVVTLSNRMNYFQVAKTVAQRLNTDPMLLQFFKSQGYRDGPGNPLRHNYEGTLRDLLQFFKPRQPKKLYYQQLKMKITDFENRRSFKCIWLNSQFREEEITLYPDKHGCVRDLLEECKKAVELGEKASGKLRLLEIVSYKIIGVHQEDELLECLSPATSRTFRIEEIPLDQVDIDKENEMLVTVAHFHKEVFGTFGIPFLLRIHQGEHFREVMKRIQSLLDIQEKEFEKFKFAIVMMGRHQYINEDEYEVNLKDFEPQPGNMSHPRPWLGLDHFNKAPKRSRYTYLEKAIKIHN
The experiment in a line: USP7 assay (Ubiquitin-Rhodamine 110 enzymatic assay). The assay is classed as biochemical. The conditions noted are these: read-out: IC50. As to the method:
Enzymatic Assays with Exemplary USP7 Irreversible Inhibitors
ND refers to not disclosed.
USP7, Active human recombinant protein (CP, Lot. 20200225001), Ubiquitin-Rhodamine 110 (Rh110) (BostonBiochem, Cat. No. U-555), DMSO (Sigma, Cat. N34869), DTT (Sangon Biotech, Cat. No. A620058-0005), […] Tris pH 8.0 (Sigma, Cat. No. T2694-1L), Tween-20 (Sigma, Cat. No. P2287-100ML), EDTA (Invitrogen, Cat. No. 15575020, BSA (Sigma, Cat. No. B2064-100G), 384-well assay plate (Corning, Cat. No. 3573), Echo Qualified 384-Well Polypropylene Microplate 2.0, Clear, Flat Bottom (LABCYTE, Cat. No. 001-14555).
Dilute the compounds to 400× of the final desired highest inhibitor concentration in reaction by 100% DMSO. For all compounds, transfer the compounds to one well in a 384-well Echo plate and serially dilute the compound by 3-fold dilution of 100% DMSO in the next well and so forth for a total of 10 concentrations by Precision. Add 30 μL of 100% DMSO to two empty wells for no compound control and no enzyme control in the same 384-well Echo plate. Make the plate as a source plate.
For USP7 assay, transfer 50 nL of each well from the source plate to a 384-well assay plate (OptiPlate TM-384 F black assay plates) by Echo 550 Liquid Handler.
Added appropriate amount of USP7 in 1× assay Buffer to prepare 2× enzyme solution (USP7 final concentration: 0.05 nM). Added appropriate amount of Ubiquitin-Rhodamine 110 in 1× assay Buffer to prepare 2× substrate solution (Ubiquitin-Rhodamine 110 final concentration: 190 nM). Added 10 μL of 2× enzyme solution to each reaction well of the 384-well assay plate, except for control wells without enzyme (add 10 μL of 1× Assay Buffer instead as for low control). […] Transferred 2× substrate solution to the assay plate. Added 10 μL of 2× substrate solution to each well of the 384-well assay plate to start reaction. Centrifuged at 1000 rpm for 1 min. Read the plate kinetically on SpectraMax Paradigm for 20 min with excitation at 485 nm and emission at 535 nm. Copied raw data (slope) from Reader to obtain inhibition values in Excel using equation (1): […]
Max signal was obtained from the action of Enzyme and Substrate. Min signal was obtained from the Substrate only. To fit the data in XLFit excel add-in version 5.4.0.8 to obtain IC50 values used equation (2): […]
Y is % inhibition and X is compound concentration.
Broadly, the IC50 is the concentration at which inhibition is half-maximal. Take `CN1CCN(CCC(=O)Nc2ccc3c(=O)n(CC4(O)CCN(C(=O)C(CCCNC(=O)c5ccc6c(Cl)c7c(nc6c5)CCCC7)Cc5ccccc5)CC4)cnc3c2)CC1` (stereo not drawn): the IC50 was less than 20 nM. As to `CN1CCN(CCC(=O)Nc2ccc3c(=O)n(CC4(O)CCN(C(=O)[C@H](CCCNC(=O)c5ccc6c(Cl)c7c(nc6c5)CCCC7)Cc5ccccc5)CC4)cnc3c2)CC1`, the IC50 lay in the range of 100 to 1000 nM.

`O=C(NCCC1CC[C@@H](C(=O)N2CCC(O)(Cn3cnc4cc(-c5ncc(CN6CCNCC6)o5)ccc4c3=O)CC2)[C@H](c2ccccc2)C1)c1ccc2c(Cl)ccnc2c1` (stereo partly drawn): the concentration for half-maximal inhibition (IC50) is 20 to 100 nM. As to `C=CC(=O)Nc1ccc(C#N)cc1N1CCC(C(=O)N2CCC(O)(Cn3cnc4cc(NC(=O)CCN5CCN(C)CC5)ccc4c3=O)CC2)C(c2ccccc2)C1` (stereo not drawn), the IC50 was greater than 1000 nM. For the compound `CN(C)CCCOc1ccc2c(=O)n(CC3(O)CCN(C(=O)[C@@H](CCCNC(=O)c4ccc5c(Cl)c(CO)cnc5c4)Cc4ccccc4)CC3)cnc2c1`, the IC50 was less than 20 nM. Then `CN(C)CCCOc1ccc2c(=O)n(CC3(O)CCN(C(=O)C(Cn4ccc(F)n4)N(C)CCNC(=O)c4ccc5c(Cl)cc(C6CC6)nc5c4)CC3)cnc2c1` (stereo not drawn), with 100 to 1000 nM; and `CN(C)CCCOc1ccc2c(=O)n(CC3(O)CCN(C(=O)C(Cc4ccccc4)N(C)CCNC(=O)c4ccc5c(Cl)cc(C6CC6)nc5c4)CC3)cnc2c1` (stereo not drawn), with 100 to 1000 nM; and `CN1CCN(CCC(=O)Nc2ccc3c(=O)n(CC4(O)CCN(C(=O)[C@H](CCCNC(=O)c5ccc6c(Cl)cc(-c7ccc(F)cc7)nc6c5)Cc5ccccc5)CC4)cnc3c2)CC1` [Compound 4, (R)—N-(4-benzyl-5-(4-hydroxy-4-((7-(3-(4-methylpiperazin-1-yl)propanamido)-4-oxoquinazolin-3(4H)-yl)methyl)piperidin-1-yl)-5-oxopentyl)-4-chloro-2-(4-fluorophenyl)quinoline-7-carboxamide], with greater than 1000 nM. Then `Nc1cccc(-n2ncc3c(=O)n(CC4(O)CCN(C(=O)C(CCCNC(=O)c5ccc6c(Cl)ccnc6c5)Cc5ccccc5)CC4)cnc32)c1` (stereo not drawn) [Compound 8, N-(5-(4-((1-(3-aminophenyl)-4-oxo-1H-pyrazolo[3,4-d]pyrimidin-5(4H)-yl)methyl)-4-hydroxypiperidin-1-yl)-4-benzyl-5-oxopentyl)-4-chloroquinoline-7-carboxamide], with 20 to 100 nM; and `N[C@@H](c1ccc(-n2ncc3c(=O)n(CC4(O)CCN(C(=O)C(CCCNC(=O)c5ccc6c(Cl)ccnc6c5)Cc5ccccc5)CC4)cnc32)cc1)C(F)(F)F` (stereo partly drawn) [Compound 9, N-(5-(4-((1-(4-(1-amino-2,2,2-trifluoroethyl)phenyl)-4-oxo-1H-pyrazolo[3,4-d]pyrimidin-5(4H)-yl)methyl)-4-hydroxypiperidin-1-yl)-4-benzyl-5-oxopentyl)-4-chloroquinoline-7-carboxamide], with 20 to 100 nM.

On to `O=C(NCCC[C@H](Cc1ccccc1)C(=O)N1CCC(O)(Cn2cnc(NCCN3CCCC3)cc2=O)CC1)c1ccc2c(Cl)ccnc2c1` [Compound 12, N-(4-benzyl-5-(4-hydroxy-4-((6-oxo-4-(2-(pyrrolidin-1-yl)ethylamino)pyrimidin-1(6H)-yl)methyl)piperidin-1-yl)-5-oxopentyl)-4-chloroquinoline-7-carboxamide], for which the half-maximal inhibitory concentration (IC50) is greater than 1000 nM. For `CN1CCN(CCC(=O)Nc2ccc3c(=O)n(CC4(O)CCN(C(=O)C(CCCNC(=O)c5ccc6c(Cl)cc(-c7cccnc7)nc6c5)Cc5ccccc5)CC4)cnc3c2)CC1` (stereo not drawn) [Compound 14, N-(4-benzyl-5-(4-hydroxy-4-((7-(3-(4-methylpiperazin-1-yl)propanamido)-4-oxoquinazolin-3(4H)-yl)methyl)piperidin-1-yl)-5-oxopentyl)-4-chloro-2-(pyridin-3-yl)quinoline-7-carboxamide], the IC50 is 100 to 1000 nM. With `CN1CCN(CCC(=O)Nc2ccc3c(=O)n(CC4(O)CCN(C(=O)C(CCCNC(=O)c5ccc6c(Cl)cc(-c7cccc(C(F)(F)F)c7)nc6c5)Cc5ccccc5)CC4)cnc3c2)CC1` (stereo not drawn) [Compound 15, N-(4-benzyl-5-(4-hydroxy-4-((7-(3-(4-methylpiperazin-1-yl)propanamido)-4-oxoquinazolin-3(4H)-yl)methyl)piperidin-1-yl)-5-oxopentyl)-4-chloro-2-(3-(trifluoromethyl)phenyl)quinoline-7-carboxamide], the IC50 lay in the range of 100 to 1000 nM. Take `CN1CCN(CCC(=O)Nc2ccc3c(=O)n(CC4(O)CCN(C(=O)C(CCCNC(=O)c5ccc6c(Cl)cc(-c7cccc(C#N)c7)nc6c5)Cc5ccccc5)CC4)cnc3c2)CC1` (stereo not drawn) [Compound 16, N-(4-benzyl-5-(4-hydroxy-4-((7-(3-(4-methylpiperazin-1-yl)propanamido)-4-oxoquinazolin-3(4H)-yl)methyl)piperidin-1-yl)-5-oxopentyl)-4-chloro-2-(3-cyanophenyl)quinoline-7-carboxamide]: the IC50 was 100 to 1000 nM. Then `CN1CCN(CCC(=O)Nc2ccc3c(=O)n(CC4(O)CCN(C(=O)C(CCCNC(=O)c5ccc6c(Cl)cc(-c7cccc(CN)c7)nc6c5)Cc5ccccc5)CC4)cnc3c2)CC1` (stereo not drawn) [Compound 17, 2-(3-(aminomethyl)phenyl)-N-(4-benzyl-5-(4-hydroxy-4-((7-(3-(4-methylpiperazin-1-yl)propanamido)-4-oxoquinazolin-3(4H)-yl)methyl)piperidin-1-yl)-5-oxopentyl)-4-chloroquinoline-7-carboxamide hydrochloride], with 20 to 100 nM. Take `CN1CCN(CCC(=O)Nc2ccc3c(=O)n(CC4(O)CCN(C(=O)[C@H](CCCNC(=O)c5ccc6c(Cl)cc(-c7cnn(CC(F)(F)F)c7)nc6c5)Cc5ccccc5)CC4)cnc3c2)CC1` [Compound 19]: the IC50 is greater than 1000 nM. Consider `CCS(=O)(=O)Nc1ccccc1-c1ccc(C(=O)N2CCC(O)(Cn3cnc4cc(NC(=O)CCN5CCN(C)CC5)ccc4c3=O)CC2)cc1` [Compound 25], for which the IC50 was greater than 1000 nM. Turning to `C=CS(=O)(=O)NCc1cccc(C(=O)N2CCC(O)(Cn3cnc4cc(NC(=O)CCN5CCN(C)CC5)ccc4c3=O)CC2)c1` [Compound 26, N-(3-((4-hydroxy-1-(3-(vinylsulfonamidomethyl)benzoyl)piperidin-4-yl)methyl)-4-oxo-3,4-dihydroquinazolin-7-yl)-3-(4-methylpiperazin-1-yl)propanamide], the concentration for half-maximal inhibition (IC50) was greater than 1000 nM. For the compound `CN1CCN(CCn2ncc3ncn(CC4(O)CCN(C(=O)C(CCCNC(=O)c5ccc6c(Cl)ccnc6c5)Cc5ccccc5)CC4)c(=O)c32)CC1` (stereo not drawn) [Compound 28], the IC50 was greater than 1000 nM. Then `CN(C)CC(=O)Nc1ccc2c(=O)n(CC3(O)CCN(C(=O)[C@H]4CC[C@@H](NC(=O)c5ccc6c(Cl)ccnc6c5)CC4)CC3)cnc2c1` [Compound 34, 4-chloro-N-((1s,4s)-4-(4-((7-(2-(dimethylamino)acetamido)-4-oxoquinazolin-3(4H)-yl)methyl)-4-hydroxypiperidine-1-carbonyl)cyclohexyl)quinoline-7-carboxamide], with greater than 1000 nM; and `CN(C)CC(=O)Nc1ccc2c(=O)n(CC3(O)CCN(C(=O)[C@H]4CC[C@H](NC(=O)c5ccc6c(Cl)ccnc6c5)CC4)CC3)cnc2c1` [Compound 35, 4-chloro-N-((1R,4R)-4-(4-((7-(2-(dimethylamino)acetamido)-4-oxoquinazolin-3(4H)-yl)methyl)-4-hydroxypiperidine-1-carbonyl)cyclohexyl)quinoline-7-carboxamide], with greater than 1000 nM.
